Data reported in US20260028390A1, “ALPHA1-ANTITRYPSIN FOR USE IN THE TREATMENT OF DISEASES OR DISORDERS OF THE NERVOUS SYSTEM SUCH AS CHRONIC INFLAMMATORY DEMYELINATING POLYNEUROPATHY” (Ageronix SA, priority 2022, published 2026).

How the values were obtained:
[1] = system: HMC3-MHCII^Luc cells; test: IFNγ-mediated microglial activation, MHCII-driven luciferase activity; type: cell-based, human; settings: IFNγ 10 ng/ml; AATs 1, 10 or 25 μM day 0 to day 4
Description: • A) Human microglial cells HMC3-MHCII^Luc cells were plated at day 0, activated with IFNγ at day1 until day 2 and measurement of the luciferase activity and cell viability were done at day 4. • B) Activation was measured by the activity of MHCII-driven luciferase and normalized to cell viability. Luciferase activity for all conditions is represented as fold of the untreated control. A potential effect of the highest concentration of the buffer used for drug presentation (IFNγ, AATs) was precluded. All conditions were performed in triplicates, error bars represent standard deviation (FIGS. 1A and 1B).
(§1) • A) Human microglial HMC3-MHCII^Luc and HMC3MHCII^Luc; Ubi^AAT cells were plated at day 0, presented IFNγ at day 1 until day 2 and measurement of the luciferase activity and cell viability were done at day 4. • B) AATs were applied from day 0 to day 4 on HMC3-MHCII^Luc cells. Activation was measured by the activity of MHCII-driven luciferase and normalized to cell viability. […]
as §1, with “HMC3-MHCII^Luc” for “HMC3-MHCII^Luc and HMC3MHCII^Luc; Ubi^AAT”, “represented as percentage of IFNγ control for all conditions.” for “normalized to cell viability.”

[2] = system: C3-PMP22 transgenic mice (CMT1A); test: Sciatic nerve histology, CMT1A mouse study (50 mg/kg twice daily); type: in vivo; settings: 8 weeks old
Description: Animals were split in 3 groups (wild-type control (subcutaneous 0.9% NaCl), CMT1A-vehicle (subcutaneous 0.9% NaCl), CMT1A-human alpha-1 antitrypsin (subcutaneous, twice daily, 50 mg/kg per injection)) of 3 mice each (3 weeks old males of 18±2.5 g at the beginning of study) and all went through the following protocol after 7 days of acclimation on site.
On the first and last day of treatment, the neuromuscular performance of animals was tested with a rotarod test, grip test and sciatic nerve electrophysiology test. After the last treatment at 8 weeks, these tests were repeated, and animals were sacrificed and the left sciatic nerve was sampled for histological evaluation of the number and size of […].

[3] = system: SH-SY5Y cells; test: Cell growth (cell count, morphology) of SH-SY5Y treated with 6-OHDA; type: cell-based; settings: 6-OHDA combined with AAT 25 μM, day 4 of culture, p=0.003
Description: SH-SY5Y cells, which are commonly used to model neurodegenerative disorders, were used to produce an in vitro Parkinson's model (Que R, et al., 2021, Front. Immunol. 12). Cells were cultured in DMEMF12/Glutamax supplemented with 10% FBS.
Cells were treated for 24 hours with the neurotoxin 6-hydroxydopamine (6-OHDA, Sigma Aldrich 162957) at 50, 100 μM concentrations alone or in combination with AAT 25 μM (AAT plasma derived, Sigma Aldrich batch A9024). Cells treated with AAT alone or in combination with 6-OHDA for 24 hours, were then incubated with fresh AAT for additional 24 hours. Control cells were treated with PBS.
At day 0 cells were plated in equally number in 24-well plate, the day after they were treated as described above, and final total cell count was performed at day 4 of culture (cell growth). Cell viability was assessed with Cell Counting Kit-8 (CCK-8; Sigma Aldrich 96992). After treatments, cells were incubated with 10 μl of CCK-8 solution for 2 hours in the incubator. Absorbance was measured at 450 nm using SpectraMax iD3 Microplate Reader. Experiments were performed in triplicate.

[4] = CMT1A + AAT, 50 mg/kg twice daily sc
[5] = CMT1A mice, AAT 50 mg/kg sc twice daily

Substance: alpha1-antitrypsin (AAT) protein
- IFNγ-mediated microglial activation (MHCII-driven luciferase activity) [1]: decreases
- axonal diameter compared to the vehicle treated group [2, 4]: significant increase
- g-ratio compared to the vehicle treated group [2, 4]: decrease
- total number of axons per surface compared to the vehicle group [2, 4]: Slight increase
- Sciatic nerve histology, Axonal diameter (Mean ± SEM) [2, 5]: 2.53 ± 0.15 ^††† μm
- Sciatic nerve histology, Axons/100 μm^2 (Mean ± SEM) [2, 5]: 39.33 ± 4.81
- Sciatic nerve histology, g-ratio (Mean ± SEM) [2, 5]: 0.63 ± 0.009 ^†††
- number of cells counted compared to 6-OHDA alone [3]: significantly increased
